In the NIST ThermoML archive (doi:10.1016/j.tca.2016.08.021):

How the values were obtained:
[1] = 100 kPa, Liquid; for viscosity: Capillary tube (Ostwald / Ubbelohde) method; for mass density: Vibrating tube method
[2] = xn = mol fraction of the nth substance listed; conditions: 100 kPa, Liquid; for viscosity: Capillary tube (Ostwald / Ubbelohde) method; for mass density: Vibrating tube method

CCNCCO [2-(ethylamino)ethanol]
[1]
Conditions	mass density [kg/m3]	viscosity [mPa·s]
293.15 K	916.8	15.39
303.15 K	909.7	9.65
313.15 K	901.3	6.64
323.15 K	894.7	4.53
333.15 K	887.2	3.36

O [water] + CCNCCO
[2], x1 = 1
Conditions	mass density [kg/m3]	viscosity [mPa·s]
293.15 K	998	1.01
303.15 K	995.1	0.8
313.15 K	–	0.65
323.15 K	989.2	0.55
333.15 K	985	0.47

CCN(CC)CCO [(diethylamino)ethanol]
[1]
Conditions	mass density [kg/m3]	viscosity [mPa·s]
293.15 K	883.5	4.81
303.15 K	875.1	3.37
313.15 K	866.2	2.46
323.15 K	857.5	1.86
333.15 K	849.2	1.46

CCNCCO [2-(ethylamino)ethanol] + CCN(CC)CCO
[2]
Conditions	mass density, 293.15 K [kg/m3]	mass density, 303.15 K [kg/m3]	mass density, 313.15 K [kg/m3]	mass density, 323.15 K [kg/m3]	mass density, 333.15 K [kg/m3]	viscosity, 293.15 K [mPa·s]	viscosity, 303.15 K [mPa·s]	viscosity, 313.15 K [mPa·s]	viscosity, 323.15 K [mPa·s]	viscosity, 333.15 K [mPa·s]
x2 = 0	916.8	909.7	901.3	894.7	887.2	15.39	9.65	6.64	4.53	3.36
x2 = 0.2	910	903	894.8	887.8	880.6	12.19	7.84	5.35	3.85	2.88
x2 = 0.4	903	895.5	887.6	880	872.1	9.87	6.51	4.5	3.3	2.48
x2 = 0.6	897	889	880.2	872.2	864.3	8.04	5.4	3.78	2.8	2.14
x2 = 0.8	889.7	881.6	873	864.6	856.4	6.36	4.36	3.11	2.31	1.79

CCNCCO [2-(ethylamino)ethanol] + O
[2]
Conditions	mass density, 293.15 K [kg/m3]	mass density, 303.15 K [kg/m3]	mass density, 313.15 K [kg/m3]	mass density, 323.15 K [kg/m3]	mass density, 333.15 K [kg/m3]	viscosity, 293.15 K [mPa·s]	viscosity, 303.15 K [mPa·s]	viscosity, 313.15 K [mPa·s]	viscosity, 323.15 K [mPa·s]	viscosity, 333.15 K [mPa·s]
x2 = 0	916.8	909.7	901.3	894.7	887.2	15.39	9.65	6.64	4.53	3.36
x2 = 0.2	929.5	922.4	914	907.4	898.6	23.82	14.54	9.29	6.23	4.52
x2 = 0.4	943.1	936.1	927.8	920.7	912	31.73	18.56	11.41	7.3	5.03
x2 = 0.6	961.6	954.8	946	938.7	931.1	31.02	17.34	10.71	7.08	4.68
x2 = 0.8	985.7	979.5	972.5	963	955.6	13.83	8.34	5.44	3.73	2.69

CCN(CC)CCO [(diethylamino)ethanol] + CCNCCO
[2], x1 = 1
Conditions	mass density [kg/m3]	viscosity [mPa·s]
293.15 K	883.5	4.81
303.15 K	875.1	3.37
313.15 K	866.2	2.46
323.15 K	857.5	1.86
333.15 K	849.2	1.46
